Test results from US8921307B2, “Synthetic linear apelin mimetics for the treatment of heart failure” (priority 2012, dated 2014).
Where two headings read alike, the source gives them in different places. Where a SMILES comes first, the peptide text is derived from it. [ ]: non-standard residue; d: D form. The star is where a group is joined. dTic = O=C(O)[C@H]1Cc2ccccc2CN1; pGlu = O=C1CC[C@@H](C(=O)O)N1; dNle = CCCC[C@@H](N)C(=O)O; Nle = CCCC[C@H](N)C(=O)O; Aib = CC(C)(N)C(=O)O; Bn = c1ccc(C*)cc1

Legend:
[1] = Surrogate Activity-Based Plasma Stability Assay; format: in vitro ADME; details: rat
Experimental: Stability half-life was then calculated by the formula, t½=0.693÷k Surrogate Activity-Based Plasma Stability Assay: […]
2) Calculate slope of value above and […]

[2] = biological target: T1, hAPJ (Homo sapiens, UniProt P35414); experiment: hAPJ Calcium Flux Assay; format: cell-based
T1 sequence (P35414 1-380): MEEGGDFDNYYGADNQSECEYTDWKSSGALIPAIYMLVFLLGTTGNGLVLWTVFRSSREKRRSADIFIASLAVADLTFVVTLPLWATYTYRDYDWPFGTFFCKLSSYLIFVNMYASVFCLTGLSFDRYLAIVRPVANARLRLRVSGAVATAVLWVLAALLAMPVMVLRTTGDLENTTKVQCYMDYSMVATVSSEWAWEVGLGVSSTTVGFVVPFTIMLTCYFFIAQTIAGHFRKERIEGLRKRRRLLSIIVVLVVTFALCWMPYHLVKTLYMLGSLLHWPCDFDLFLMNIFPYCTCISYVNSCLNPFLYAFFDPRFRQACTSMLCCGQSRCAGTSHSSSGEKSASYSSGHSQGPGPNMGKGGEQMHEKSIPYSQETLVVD
Experimental: Chem-5 APJ stable cells (Millipore # HTS068C) were plated in 384-well format with 10,000 cells/well in 25 ul growth media, then grown 24 hours in a 37° C. tissue culture incubator. One hour before the assay, 25 ul/well FLIPR Calcium 4 dye (Molecular Devices R8142) with 2.5 mM probenecid was added, and cells were incubated one hour in a 37° C. tissue culture incubator. Peptides were solubilized in HBSS, HEPES & 0.1% BSA buffer, and serially-diluted 10-fold, from 50 uM to […], in triplicate. FLIPR Tetra was used to add peptide to the cells with dye (1:5, for final peptide concentrations ranging from 10 uM to […]). FLIPR dye inside the cells emitted fluorescence after binding to calcium, while fluorescence from outside the cells was masked. Fluorescence was measured using 470-495 excitation and 515-575 emission wavelengths on the FLIPR Tetra. Readings were done for 3 minutes total, beginning 10 seconds before the peptide addition. Maximum-minimum values were calculated and plotted for each peptide concentration, and GraphPad prism software was used to calculate EC50 values at the curve inflection points, for calcium flux stimulation by peptides.

[3] = Surrogate activity-based Plasma stability t½
[4] = Chem-5 APJ stable cells, FLIPR calcium flux stimulation, read-out: hAPJ Ca^2+ Flux EC50

SMILES	half-life [1, 3]	EC50 [2, 4]	half-life ([1]; read-out: Surrogate activity-based Plasma stability t½)	EC50 [2]
CCCC[C@@H](NC(=O)[C@@H]1CCCN1C(=O)CNC(=O)[C@H](CCCCN)NC(=O)[C@H](Cc1c[nH]cn1)NC(=O)[C@@H](C)NC(=O)[C@H](CC(C)C)NC(=O)[C@H](CCCNC(=N)N)NC(=O)[C@@H]1CCCN1C(=O)[C@H](CCCNC(=N)N)NC(=O)[C@@H]1CCC(=O)N1)C(=O)N[C@H](C)C(=O)N1Cc2ccccc2C[C@@H]1C(=O)O [Example 26, pE-R-P-R-L-a-H-K-G-P-nle-a-tic-OH] ([pGlu]RPRL[dA]HKGP[dNle][dA][dTic]-OH)	986 min	1.7 nM	–	–
CCCC[C@@H](NC(=O)[C@@H]1CCCN1C(=O)CNC(=O)[C@H](CCCCN)NC(=O)[C@H](Cc1c[nH]cn1)NC(=O)[C@@H](C)NC(=O)[C@H](Cc1ccc(OCc2ccccc2)cc1)NC(=O)[C@H](CCCNC(=N)N)NC(=O)[C@@H]1CCCN1C(=O)[C@H](CCCNC(=N)N)NC(=O)[C@@H]1CCC(=O)N1)C(=O)N[C@H](C)C(=O)N[C@H](Cc1ccccc1)C(=O)O [Example 27, pE-R-P-R-Y(Bzl)-a-H-K-G-P-nle-a-f-OH] ([pGlu]RPRY(Bn)[dA]HKGP[dNle][dA][dF]-OH)	–	–	349 min	121 nM
CCCC[C@@H](NC(=O)[C@@H]1CCCN1C(=O)CNC(=O)[C@H](CCCCN)NC(=O)[C@H](Cc1c[nH]cn1)NC(=O)[C@@H](C)NC(=O)[C@H](Cc1ccc(O)cc1)NC(=O)[C@H](CCCNC(=N)N)NC(=O)[C@@H]1CCCN1C(=O)[C@H](CCCNC(=N)N)NC(=O)[C@@H]1CCC(=O)N1)C(=O)N[C@H](C)C(=O)N[C@H](Cc1ccccc1)C(=O)O [Example 28, pE-R-P-R-Y-a-H-K-G-P-nle-a-f-OH] ([pGlu]RPRY[dA]HKGP[dNle][dA][dF]-OH)	> 1000 min	114 nM	–	–
CCCC[C@H](NC(=O)[C@@H]1CCCN1C(=O)CNC(=O)[C@@H](CCCCN)NC(=O)[C@H](Cc1c[nH]cn1)NC(=O)[C@@H](C)NC(=O)[C@H](CC(C)C)NC(=O)[C@H](CCCNC(=N)N)NC(=O)[C@@H]1CCCN1C(=O)[C@H](CCCNC(=N)N)NC(=O)[C@@H]1CCC(=O)N1)C(=O)N[C@H](C)C(=O)N[C@H](Cc1ccccc1)C(=O)O [Example 31, pE-R-P-R-L-a-H-k-G-P-Nle-a-f-OH]	347 min	99 nM	–	–
CCCC[C@@H](NC(=O)[C@@H]1CCCN1C(=O)CNC(=O)[C@H](CCCCN)NC(=O)[C@H](Cc1c[nH]cn1)NC(=O)[C@@H](C)NC(=O)[C@H](CC(C)C)NC(=O)[C@H](CCCNC(=N)N)NC(=O)[C@@H]1CCCN1C(=O)[C@H](CCCNC(=N)N)NC(=O)[C@@H]1CCC(=O)N1)C(=O)N[C@H](C)C(=O)N[C@H](Cc1ccccc1)C(N)=O [Example 33, pE-R-P-R-L-a-H-K-G-P-nle-a-f-NH2]	> 1000 min	14.8 nM	–	–
CCCC[C@H](NC(=O)[C@@H]1CCCN1C(=O)CNC(=O)[C@H](CCCCN)NC(=O)[C@H](Cc1c[nH]cn1)NC(=O)[C@@H](C)NC(=O)[C@H](CC(C)C)NC(=O)[C@H](CCCNC(=N)N)NC(=O)[C@@H]1CCCN1C(=O)[C@H](CCCNC(=N)N)NC(=O)[C@@H]1CCC(=O)N1)C(=O)N1CCC[C@H]1C(=O)N[C@H](Cc1ccccc1)C(=O)O [Example 34, pE-R-P-R-L-a-H-K-G-P-Nle-P-f-OH] ([pGlu]RPRL[dA]HKGP[Nle]P[dF]-OH)	23.2 min	34.5 nM	–	–
CCCC[C@H](NC(=O)[C@@H]1CCCN1C(=O)CNC(=O)[C@H](CCCCN)NC(=O)[C@H](Cc1c[nH]cn1)NC(=O)[C@@H](C)NC(=O)[C@H](CC(C)C)NC(=O)[C@H](CCCNC(=N)N)NC(=O)[C@@H]1CCCN1C(=O)[C@H](CCCNC(=N)N)NC(=O)[C@@H]1CCC(=O)N1)C(=O)N[C@H](Cc1ccccc1)C(=O)O [Example 35, pE-R-P-R-L-a-H-K-G-P-Nle-f-OH]	> 1000 min	10.7 nM	–	–
CCCC[C@@H](NC(=O)[C@@H]1CCCN1C(=O)CNC(=O)[C@H](CCCCN)NC(=O)[C@H](Cc1c[nH]cn1)NC(=O)[C@@H](C)NC(=O)[C@H](CC(C)C)NC(=O)[C@H](CCCNC(=N)N)NC(=O)[C@@H]1CCCN1C(=O)[C@H](CCCNC(=N)N)NC(=O)[C@@H]1CCC(=O)N1)C(=O)N[C@H](C)C(=O)NCCc1ccccc1 [Example 36, pE-R-P-R-L-a-H-K-G-P-nle-a-NH(Phenethyl)]	121 min	16.2 nM	–	–
CCCC[C@@H](NC(=O)[C@@H]1CCCN1C(=O)CNC(=O)[C@H](CCCCN)NC(=O)C(C)(C)NC(=O)[C@H](CO)NC(=O)[C@H](CC(C)C)NC(=O)[C@H](CCCNC(=N)N)NC(=O)[C@@H]1CCCN1C(=O)[C@H](CCCNC(=N)N)NC(=O)[C@@H]1CCC(=O)N1)C(=O)N[C@H](C)C(=O)N[C@@H](Cc1ccccc1)C(=O)O [Example 37, pE-R-P-R-L-S-Aib-K-G-P-nle-a-F-OH] ([pGlu]RPRLS[Aib]KGP[dNle][dA]F-OH)	524 min	3.9 nM	–	–
CCCC[C@H](NC(=O)[C@@H]1CCCN1C(=O)CNC(=O)[C@H](CCCCN)NC(=O)C(C)(C)NC(=O)[C@H](CO)NC(=O)[C@H](CC(C)C)NC(=O)[C@H](CCCNC(=N)N)NC(=O)[C@@H]1CCCN1C(=O)[C@H](CCCNC(=N)N)NC(=O)[C@@H]1CCC(=O)N1)C(=O)N[C@H](C)C(=O)N[C@H](Cc1ccccc1)C(=O)O [Example 38, pE-R-P-R-L-S-Aib-K-G-P-Nle-a-f-OH] ([pGlu]RPRLS[Aib]KGP[Nle][dA][dF]-OH)	> 1000 min	3.3 nM	–	–
CCCC[C@H](NC(=O)[C@@H]1CCCN1C(=O)CNC(=O)[C@H](CCCCN)NC(=O)[C@H](Cc1c[nH]cn1)NC(=O)[C@@H](C)NC(=O)[C@H](CC(C)C)NC(=O)[C@H](CCCNC(=N)N)NC(=O)[C@@H]1CCCN1C(=O)[C@H](CCCNC(=N)N)NC(=O)[C@@H]1CCC(=O)N1)C(=O)N[C@H](C)C(=O)N[C@@H](Cc1ccccc1)C(=O)O [Example 39, pE-R-P-R-L-a-H-K-G-P-Nle-a-F-OH]	888 min	4.5 nM	–	–
CCCC[C@@H](NC(=O)[C@@H]1CCCN1C(=O)CNC(=O)[C@H](CCCCN)NC(=O)C(C)(C)NC(=O)[C@H](CO)NC(=O)[C@H](CC(C)C)NC(=O)[C@H](CCCNC(=N)N)NC(=O)[C@@H]1CCCN1C(=O)[C@H](CCCNC(=N)N)NC(=O)[C@@H]1CCC(=O)N1)C(=O)N[C@H](C)C(=O)N[C@H](Cc1ccccc1)C(=O)O [Example 40, pE-R-P-R-L-S-Aib-K-G-P-nle-a-f-OH] ([pGlu]RPRLS[Aib]KGP[dNle][dA][dF]-OH)	> 1000 min	2 nM	–	–
CCCC[C@H](NC(=O)[C@@H]1CCCN1C(=O)CNC(=O)[C@H](CCCCN)NC(=O)C(C)(C)NC(=O)[C@H](CO)NC(=O)[C@H](CC(C)C)NC(=O)[C@H](CCCNC(=N)N)NC(=O)[C@@H]1CCCN1C(=O)[C@H](CCCNC(=N)N)NC(=O)[C@@H]1CCC(=O)N1)C(=O)N1CCC[C@H]1C(=O)N[C@H](Cc1ccccc1)C(=O)O [Example 41, pE-R-P-R-L-S-Aib-K-G-P-Nle-P-f-OH]	42.2 min	4.5 nM	–	–
CCCC[C@H](NC(=O)[C@@H]1CCCN1C(=O)CNC(=O)[C@H](CCCCN)NC(=O)C(C)(C)NC(=O)[C@H](CO)NC(=O)[C@H](CC(C)C)NC(=O)[C@H](CCCNC(=N)N)NC(=O)[C@@H]1CCCN1C(=O)[C@H](CCCNC(=N)N)NC(=O)[C@@H]1CCC(=O)N1)C(=O)N[C@H](C)C(=O)N[C@@H](Cc1ccccc1)C(=O)O [Example 42, pE-R-P-R-L-S-Aib-K-G-P-Nle-a-F-OH] ([pGlu]RPRLS[Aib]KGP[Nle][dA]F-OH)	> 1000 min	2.4 nM	–	–
CCCC[C@@H](NC(=O)[C@@H]1CCCN1C(=O)CNC(=O)[C@H](CCCCN)NC(=O)[C@H](Cc1c[nH]cn1)NC(=O)[C@@H](C)NC(=O)[C@H](CC(C)C)NC(=O)[C@H](CCCNC(=N)N)NC(=O)[C@@H]1CCCN1C(=O)[C@H](CCCNC(=N)N)NC(=O)[C@@H]1CCC(=O)N1)C(=O)N1CCC(Oc2ccccc2)CC1 [Example 43, pE-R-P-R-L-a-H-K-G-P-nle-(4-Phenoxypiperidin-1-yl)]	178 min	2 nM	–	–
CCCC[C@@H](NC(=O)[C@@H]1CCCN1C(=O)CNC(=O)[C@H](CCCCN)NC(=O)[C@H](Cc1c[nH]cn1)NC(=O)[C@@H](CC)NC(=O)[C@H](CC(C)C)NC(=O)[C@H](CCCNC(=N)N)NC(=O)[C@@H]1CCCN1C(=O)[C@H](CCCNC(=N)N)NC(=O)[C@@H]1CCC(=O)N1)C(=O)N[C@H](C)C(=O)N[C@H](Cc1ccccc1)C(=O)O [Example 44, pE-R-P-R-L-abu-H-K-G-P-nle-a-f-OH]	555 min	3 nM	–	–
